# Molecular target: T1, HIV-1 Reverse Transcriptase (Human immunodeficiency virus type 1 group M subtype B, UniProt P03366)
# T1 construct: Lys101, Val179 (p66 subunit) and Glu138 (p51 subunit); purchased Roche
# Experiment: HIV-1 RT inhibitory action, colorimetric photometric immunoassay kit (Roche)
# Type: biochemical
# Conditions: for IC50: IC50 (μM), 45 min pre-incubation, 2 h at 37 °C
# Experimental: For the evaluation of the HIV-1 Reverse Transcriptase activity, the colorimetric photometric immunoassay kit provided by Roche was used. A two hours incubation at 37 °C was performed, as previously described in our paper following a pre-incubation step in which reverse transcriptase was incubated in the presence of the potential inhibitor for 45 min at room temperature before the addition of the substrate. The total-activity was measured in the absence of inhibitors (compounds) with the addition of an equal volume of the solvent of the compounds to the reaction mixture. For the determination of enzyme activity, incubation in the absence of enzyme was used as blank. Different inhibitor concentrations were added for the calculation of IC50 values.
smiles,measurement,value
"CCOc1ccc2nc(N3C(=O)CSC3c3ccc(O)cc3)sc2c1 (stereo not shown) [Compound 28, 3-(6-Ethoxy-benzo[d]thiazol-2-yl)-2-(4-hydroxyphenyl)thiazolidin-4-one]",inhibition at 4 µM,62%
same,IC50,2 µM
"O=C1CSC(c2ccc(Cl)cc2)N1c1nc2ccc(OC(F)(F)F)cc2s1 (stereo not shown) [Compound 32, 3-(6-Trifluoromethoxy-benzo[d]thiazol-2-yl)-2-(4-chlorophenyl)thiazolidin-4-one]",inhibition at 4 µM,46%
same,IC50,> 4 µM
"COc1ccc2nc(N3C(=O)CSC3c3ccc(F)cc3)sc2c1 (stereo not shown) [Compound 20, 3-(6-Methoxy-benzo[d]thiazol-2-yl)-2-(4-fluorophenyl)thiazolidin-4-one]",inhibition at 4 µM,55%
same,IC50,1.51 µM
"O=C1CSC(c2ccc(O)cc2)N1c1nc2ccc(Cl)cc2s1 (stereo not shown) [Compound 9, 3-(6-Chloro-benzo[d]thiazol-2-yl)-2-(4-hydroxyphenyl)thiazolidin-4-one]",inhibition at 4 µM,56%
same,IC50,0.001 µM
"O=C1CSC(c2c(F)cccc2F)N1c1nc2cccc(Cl)c2s1 (stereo not shown) [Compound 1, 3-(7-Chloro-benzo[d]thiazol-2-yl)-2-(2,6-difluorophenyl)thiazolidin-4-one]",inhibition at 4 µM,70%
same,IC50,0.21 µM
"O=C1CSC(c2c(Cl)cccc2Cl)N1c1nc2ccc(OC(F)(F)F)cc2s1 (stereo not shown) [Compound 29, 3-(6-Trifluoromethoxy-benzo[d]thiazol-2-yl)-2-(2,6-dichlorophenyl) thiazolidin-4-one]",inhibition at 4 µM,49%
same,IC50,4.28 µM
"O=C1CSC(c2ccc(F)cc2)N1c1nc2ccc(F)cc2s1 (stereo not shown) [Compound 3, 3-(6-Fluoro-benzo[d]thiazol-2-yl)-2-(4-fluorophenyl)thiazolidin-4-one]",inhibition at 4 µM,72%
same,IC50,0.15 µM
"COc1cccc2sc(N3C(=O)CSC3c3ccc(F)cc3)nc12 (stereo not shown) [Compound 15, 3-(4-Methoxy-benzo[d]thiazol-2-yl)-2-(4-flurophenyl)thiazolidin-4-one]",inhibition at 4 µM,69%
same,IC50,2.08 µM
"COc1cccc2sc(N3C(=O)CSC3c3ccc([N+](=O)[O-])cc3)nc12 (stereo not shown) [Compound 16, 3-(4-Methoxy-benzo[d]thiazol-2-yl)-2-(4-nitrophenyl)thiazolidin-4-one]",inhibition at 4 µM,68%
same,IC50,2.2 µM
"O=C1CSC(c2ccc([N+](=O)[O-])cc2)N1c1nc2ccc(F)cc2s1 (stereo not shown) [Compound 4, 3-(6-Fluoro-benzo[d]thiazol-2-yl)-2-(4-nitrophenyl)thiazolidin-4-one]",inhibition at 4 µM,54%
same,IC50,3.8 µM
"COc1ccc2nc(N3C(=O)CSC3c3ccc([N+](=O)[O-])cc3)sc2c1 (stereo not shown) [Compound 21, 3-(6-Methoxy-benzo[d]thiazol-2-yl)-2-(4-nitrophenyl)thiazolidin-4-one]",inhibition at 4 µM,50%
same,IC50,4 µM
"O=C1CSC(c2cccc(Cl)c2Cl)N1c1nc2ccc(OC(F)(F)F)cc2s1 (stereo not shown) [Compound 30, 3-(6-Trifluoromethoxy-benzo[d]thiazol-2-yl)-2-(2,3-dichlorophenyl) thiazolidin-4-one]",inhibition at 4 µM,46%
same,IC50,> 4 µM
"COc1cccc2sc(N3C(=O)CSC3c3ccc(O)cc3)nc12 (stereo not shown) [Compound 19, 3-(4-Methoxy-benzo[d]thiazol-2-yl)-2-(4-hydroxyphenyl)thiazolidin-4-one]",inhibition at 4 µM,71%
same,IC50,2.62 µM
"O=C1CSC(c2ccc(Cl)cc2)N1c1nc2ccc(F)cc2s1 (stereo not shown) [Compound 5, 3-(6-Fluoro-benzo[d]thiazol-2-yl)-2-(4-chlorophenyl)thiazolidin-4-one]",inhibition at 4 µM,44%
same,IC50,> 4 µM
"O=C1CSC(c2ccc(O)cc2)N1c1nc2ccc(F)cc2s1 (stereo not shown) [Compound 7, 3-(6-Fluoro-benzo[d]thiazol-2-yl)-2-(4-hydroxyphenyl)thiazolidin-4-one]",inhibition at 4 µM,50%
same,IC50,4 µM
"O=C1CSC(c2ccc(F)cc2)N1c1nc2c(Cl)cccc2s1 (stereo not shown) [Compound 10, 3-(4-Chloro-benzo[d]thiazol-2-yl)-2-(4-fluorophenyl)thiazolidin-4-one]",inhibition at 4 µM,63%
same,IC50,0.001 µM
"COc1ccc(C2SCC(=O)N2c2nc3ccc(F)cc3s2)cc1 (stereo not shown) [Compound 6, 3-(6-Fluoro-benzo[d]thiazol-2-yl)-2-(4-methoxyphenyl)thiazolidin-4-one]",inhibition at 4 µM,35%
same,IC50,> 4 µM
"O=C1CSC(c2ccc(F)cc2)N1c1nc2ccc(Cl)cc2s1 (stereo not shown) [Compound 8, 3-(6-Chloro-benzo[d]thiazol-2-yl)-2-(4-fluorophenyl)thiazolidin-4-one]",inhibition at 4 µM,83%
same,IC50,0.26 µM
"O=C1CSC(c2ccc(O)cc2)N1c1nc2c(Cl)cccc2s1 (stereo not shown) [Compound 14, 3-(4-Chloro-benzo[d]thiazol-2-yl)-2-(4-hydroxyphenyl)thiazolidin-4-one]",inhibition at 4 µM,83%
same,IC50,0.01 µM
"O=C1CSC(c2c(F)cccc2Cl)N1c1nc2cccc(Cl)c2s1 (stereo not shown) [Compound 2, 3-(7-Chloro-benzo[d]thiazol-2-yl)-2-(2-chloro-6-fluorophenyl)thiazolidin-4-one]",inhibition at 4 µM,72%
same,IC50,0.0047 µM
"COc1cccc2sc(N3C(=O)CSC3c3ccc(Cl)cc3)nc12 (stereo not shown) [Compound 17, 3-(4-Methoxy-benzo[d]thiazol-2-yl)-2-(4-chlorophenyl)thiazolidin-4-one]",inhibition at 4 µM,67%
same,IC50,2.6 µM
"O=C1CSC(c2ccc([N+](=O)[O-])cc2)N1c1nc2ccc(OC(F)(F)F)cc2s1 (stereo not shown) [Compound 31, 3-(6-Trifluoromethoxy-benzo[d]thiazol-2-yl)-2-(4-nitrophenyl)thiazolidin-4-one]",inhibition at 4 µM,46%
same,IC50,> 4 µM
"COc1ccc(C2SCC(=O)N2c2nc3ccc(OC)cc3s2)cc1 (stereo not shown) [Compound 23, 3-(6-Methoxy-benzo[d]thiazol-2-yl)-2-(4-methoxyphenyl)thiazolidin-4-one]",inhibition at 4 µM,73%
same,IC50,2.39 µM
"CCOc1ccc2nc(N3C(=O)CSC3c3ccc(F)cc3)sc2c1 (stereo not shown) [Compound 24, 3-(6-Ethoxy-benzo[d]thiazol-2-yl)-2-(4-fluorophenyl)thiazolidin-4-one]",inhibition at 4 µM,36%
same,IC50,> 4 µM
"CCOc1ccc2nc(N3C(=O)CSC3c3ccc([N+](=O)[O-])cc3)sc2c1 (stereo not shown) [Compound 25, 3-(6-Ethoxy-benzo[d]thiazol-2-yl)-2-(4-nitrophenyl)thiazolidin-4-one]",inhibition at 4 µM,44%
same,IC50,> 4 µM
"CCOc1ccc2nc(N3C(=O)CSC3c3ccc(Cl)cc3)sc2c1 (stereo not shown) [Compound 26, 3-(6-Ethoxy-benzo[d]thiazol-2-yl)-2-(4-chlorophenyl)thiazolidin-4-one]",inhibition at 4 µM,73%
same,IC50,2.48 µM
"CCOc1ccc2nc(N3C(=O)CSC3c3ccc(OC)cc3)sc2c1 (stereo not shown) [Compound 27, 3-(6-Ethoxy-benzo[d]thiazol-2-yl)-2-(4-methoxyphenyl)thiazolidin-4-one]",inhibition at 4 µM,76%
same,IC50,1.93 µM
"COc1ccc2nc(N3C(=O)CSC3c3ccc(Cl)cc3)sc2c1 (stereo not shown) [Compound 22, 3-(6-Methoxy-benzo[d]thiazol-2-yl)-2-(4-chlorophenyl)thiazolidin-4-one]",inhibition at 4 µM,72%
same,IC50,2.76 µM
"COc1ccc(C2SCC(=O)N2c2nc3c(Cl)cccc3s2)cc1 (stereo not shown) [Compound 13, 3-(4-Chloro-benzo[d]thiazol-2-yl)-2-(4-methoxyphenyl)thiazolidin-4-one]",inhibition at 4 µM,65%
same,IC50,1.99 µM
"O=C1CSC(c2ccc(Cl)cc2)N1c1nc2c(Cl)cccc2s1 (stereo not shown) [Compound 12, 3-(4-Chloro-benzo[d]thiazol-2-yl)-2-(4-chlorophenyl)thiazolidin-4-one]",inhibition at 4 µM,50%
same,IC50,4 µM
"COc1ccc(C2SCC(=O)N2c2nc3c(OC)cccc3s2)cc1 (stereo not shown) [Compound 18, 3-(4-Methoxy-benzo[d]thiazol-2-yl)-2-(4-methoxyphenyl)thiazolidin-4-one]",inhibition at 4 µM,72%
same,IC50,2.69 µM
"O=C1CSC(c2ccc([N+](=O)[O-])cc2)N1c1nc2c(Cl)cccc2s1 (stereo not shown) [Compound 11, 3-(4-Chloro-benzo[d]thiazol-2-yl)-2-(4-nitrophenyl)thiazolidin-4-one]",inhibition at 4 µM,40%
same,IC50,> 4 µM

# From paper PMC6864537, “Novel Thiazolidin-4-ones as Potential Non-Nucleoside Inhibitors of HIV-1 Reverse Transcriptase” (Molecules, 2019)
